Assay results from PubChem BioAssay (NCI).
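The compound was tested at five concentrations on cells cultured in 96-well plates, with a 48-hour exposure period. GI50 is the concentration that inhibits growth by half. At the TGI there is no net growth.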

Legend:
Assay in all cases: NCI anticancer screen, dose series, 48 h
[1] = system: MALME-3M melanoma
[2] = system: HOP-62 NSCLC
[3] = system: UACC-257 melanoma
[4] = system: NCI-H226 lung
[5] = system: SNB-75 CNS
[6] = system: NCI/ADR-RES ovarian
[7] = system: MDA-MB-231 breast
[8] = system: CAKI-1 renal
[9] = system: A498 renal
[10] = system: IGROV1 ovarian

Row | SMILES | TGI [1] [µM] | TGI [2] [µM] | TGI [3] [µM] | TGI [4] [µM] | TGI [5] [µM] | TGI [6] [µM] | TGI [7] [µM] | TGI [8] [µM] | TGI [9] [µM] | TGI [10] [µM] | GI50 [1] [µM] | GI50 [2] [µM] | GI50 [3] [µM] | GI50 [4] [µM] | GI50 [5] [µM] | GI50 [6] [µM] | GI50 [7] [µM] | GI50 [8] [µM] | GI50 [9] [µM] | GI50 [10] [µM]
1 | O=[N+]([O-])c1c(Br)cc(Br)c2c1Nc1c(ccc(Cl)c1Cl)S2 | 27.7 | 34.9 | 21.2 | 31.6 | > 72 | 75.1 | 26.6 | 33.6 | 39.1 | 31.2 |  |  |  |  |  |  |  |  |  | 
2 | Cc1cc(O)c(C(C)C)cc1SC#N | 35.9 | 38.2 | 38.1 |  | 22.5 | 47.7 | 37.9 | 28.2 | 31.9 | 37.6 |  |  |  |  |  |  |  |  |  | 
3 | C/C=C\C(CC(=O)NCCc1cn(C(=O)OCc2ccccc2)c2ccccc12)CC(=O)OC (stereo not given) | > 100 | > 100 | > 100 |  | > 100 | > 100 | > 100 | > 100 | > 100 | > 100 |  |  |  |  |  |  |  |  |  | 
4 | N=c1oc2ccc3ccccc3c2cc1C(N)=O |  | > 100 | > 100 | > 100 | > 100 | > 100 | > 100 | > 100 | > 100 | 70.8 |  |  |  |  |  |  |  |  |  | 
5 | COc1cc2c(cc1OCCCC(=O)Nc1cc(C(=O)Nc3cc(C(=O)Nc4cc(C(=O)NCCCN(C)C)n(C)n4)n(C)n3)n(C)n1)N=CC1CCCN1C2=O (stereo not given) | 25.5 | > 100 | 40.9 | 48.1 | 52.6 | 81.7 | 55.5 | 61.5 | 42.8 | 7.98 |  |  |  |  |  |  |  |  |  | 
6 | CCOC(=O)c1c(CN2CCNCC2)nc2ccccc2c1-c1ccccc1 | 22 | 31 | 15.7 | 37.9 | 20.5 | 34.4 | 29.3 | 25.7 | 28.3 | 29.2 |  |  |  |  |  |  |  |  |  | 
7 | NC(=S)N/N=C\c1ccc(OCc2cccc(COc3ccc(/C=N/NC(N)=S)cc3)n2)cc1 | > 100 | > 100 | > 100 | > 100 | > 100 | > 100 | 76 | > 100 | > 100 | > 100 |  |  |  |  |  |  |  |  |  | 
8 | Cc1nc2c3c(ncn2n1)Oc1c(c(-c2ccccc2)nn1-c1ccccc1)C3c1ccc(Cl)cc1 (stereo not given) | > 100 | > 100 | > 100 | > 100 | > 100 | > 100 | > 100 | > 100 | > 100 | > 100 |  |  |  |  |  |  |  |  |  | 
9 | O=[N+]([O-])c1ccc(S[C@@H]2[C@H]3c4c(-c5ccccc5)[nH]c(-c5ccccc5)c4[C@@H]2C[C@H]3Cl)cc1 | 78.9 | 67.6 | > 100 | > 100 | 8.29 | 26.4 | > 100 | > 100 | 89 | > 100 |  |  |  |  |  |  |  |  |  | 
10 | COc1cc(/C=C/C(=O)c2c(=O)o[nH][n+]2-c2ccccc2)ccc1[O-] | 12 | 16 | 12.4 | > 24.1 | 8.7 | 7.22 | 12.4 | 9.41 | 20.2 | 9.66 |  |  |  |  |  |  |  |  |  | 
11 | CC1(C)OCC(C(O)C2OC(C)(C)OC2C=O)O1 (stereo not given) | > 100 | > 100 | > 100 | > 100 | > 100 | > 100 | > 100 |  | > 100 | > 100 |  |  |  |  |  |  |  |  |  | 
12 | Cc1cc(/C=C\c2ccc3ccccc3[n+]2C)c(O)c2ncccc12 | 5.16 | 8.03 | 6.59 | 3.17 | 7.24 | 13.6 | 1.9 | 3.51 | 3.01 | 2.38 | 1.17 | 0.497 | 1.54 | 1.24 | 1.83 | 1.1 | 0.259 | 0.816 | 0.18 | 0.413
13 | Cc1cccc2c1[nH]c1[nH]c(=O)[nH]c(=O)c12 | > 100 | > 100 | > 100 | > 100 | 85.5 | > 100 | > 100 | > 100 | > 100 | > 100 |  |  |  |  |  |  |  |  |  | 
14 | CC[N+]1(C)CCC(O)(/C=C/c2ccc(OC)cc2)C(C(=O)/C=C/c2ccc(OC)cc2)C1 (stereo not given) | 34.6 | 42.9 | 42.4 | > 100 | 40.6 | > 60.8 | > 53.9 | 3.93 | 31.4 | 47.1 |  |  |  |  |  |  |  |  |  | 
15 | COc1nc2c(c(=O)n1C)N[C@H]1[C@H](OC(C)=O)[C@@H](OC(C)=O)CO[C@H]1N2 | > 100 | > 100 | > 100 | > 100 | > 100 | > 100 | > 100 | > 100 | > 100 | > 100 |  |  |  |  |  |  |  |  |  | 
16 | CC(=O)O[C@@H]1C[C@@]23C[C@@]24CC[C@H](OC2OCC(O)C(O)C2O)C(C)(C)[C@@H]4CC=C3[C@]2(C)C[C@@H]3OC4(C[C@@H](C)[C@@H]3[C@@]12C)OC(O)[C@@]1(C)O[C@@H]41 (stereo not given in full) | > 100 | 78.3 | 67 | > 100 | 58.7 | > 100 | 44 | > 100 | > 100 | > 100 |  |  |  |  |  |  |  |  |  | 
17 | CN(C)c1nc(N(C)C)nc(N(C)C23CC4CC(CC(C4)C2)C3)n1 | 95.7 | > 100 | > 100 | > 100 | 86 | > 100 | 77.4 | > 100 | > 100 | 58.8 |  |  |  |  |  |  |  |  |  | 
18 | CCOC(=O)C(=[N+]=[N-])C(=O)Nc1nn2nnnc2c2ccccc12 | > 100 | > 100 | > 100 | > 100 | > 100 | > 100 | > 100 | > 100 | > 100 | > 100 |  |  |  |  |  |  |  |  |  | 
19 | c1ccc(CCN2CCc3[nH]c4ccccc4c3C2)cc1 | 32.8 | 45.6 | 30.4 | 71.4 | 68 | 36.9 | 87.7 |  | 33.3 | 67.8 |  |  |  |  |  |  |  |  |  | 
